According to paper PMC10820816, “Drug Synergism of Anticancer Action in Combination with Favipiravir and Paclitaxel on Neuroblastoma Cells” (Medicina, 2023):
Values after ≈ are worked out from the molar mass of the structure shown.

What was measured:
[1] = tested on: CYP2C8; parameters: method as in PMID 34339547; settings: cited from earlier work
[2] = tested on: SHSY-5Y neuroblastoma cells; assay: Flow cytometry analysis (FITC Annexin V / PI); assay type: cell-based, human; settings: FPV alone 39.06, 19.53, 9.76 µg/mL
Description: (§1) The human dermal fibroblast cell (HDFa, ATCC® PCS-201-012™) culture was grown in the DMEM medium supplemented with 1% penicillin/streptomycin, 10% FBS and 5% CO2 at a 37 °C temperature until the cultures reached 80% confluency. The human neuroblastoma cell (SH-SY5Y, ATCC® CRL-2266™) line was cultured in DMEM/F12 culture media containing 1% penicillin/streptomycin and 10% fetal bovine serum at 37 °C and 5% CO2. Neuroblastoma cell cultures were incubated to grow up to 80% cell density.
(§2) Flow cytometry analysis was performed by using the FITC Annexin V/Dead Cell Apoptosis Kit with FITC Annexin V and PI according to the producer’s recommendations. Further, 5 × 10^4 cells were collected by trypsinization and centrifugation. The cells were resuspended in 500 μL of 1× binding buffer and 5 μL of propidium iodide, and the Annexin V-FITC (50 μg/mL) dyes were added to the cultures and incubated in the dark for 5 min. Finally, the cultures were analyzed via the use of flow cytometry (The CyFlow® Cube 6, Norderstedt, Germany).

[3] = tested on: HDFa healthy cell cultures; assay: Hoechst 33258 fluorescent staining and nuclear abnormality analysis; assay type: cell-based, human; parameters: MN (micronuclei) / Ntc (notched nuclei): unit not given here; settings: for Abnormality Numbers/1000 Cells / L (lobed nuclei) / MN (micronuclei) / Ntc (notched nuclei): 24 h; for nuclear anomaly change compared to negative control: Hoechst 33258 staining
Description: as §1
The Hoechst 33258 nuclear staining method was used to monitor abnormalities in the nuclear structures of a healthy HDFa cell culture. Tested drugs were applied to the HDFa cell cultures at various concentrations, and the cell cultures were incubated at 37 °C for 24 h. Then, HDFa cells were fixed by using 4% paraformaldehyde at 4 °C for 30 min. After the incubation period, the cell cultures were washed with PBS two times. A total of 1 µM Hoechst 33258 fluorescent dye was added to the samples and incubated at room temperature for 5 min. Nuclear morphologies were monitored and photographed under a fluorescent microscope (Leica® DM IL LED, Wetzlar, Germany).

[4] = Flow cytometry analysis (FITC Annexin V / PI); assay type: cell-based, human; settings: human, SH-SY5Y neuroblastoma cells, SHSY-5Y, PTX 10 µg/mL
Description: as §1, §2

[5] = MTT cell viability assay on SH-SY5Y neuroblastoma cells; assay type: cell-based, human; settings: human, SH-SY5Y neuroblastoma cells, SHSY-5Y, PTX 10 µg/mL alone
Description: as §1
(§3) Cell viability analyses were performed on HDFa and SH-SY5Y by using the 3-(4,5-dimethylthiazol-2-yl)-2,5-diphenyltetrazolium bromide (MTT) technique. Briefly, the compounds were applied to cell cultures at defined concentration intervals (1.65 µg/mL to 100 µg/mL) for 24 h. At the end of the incubation period, 10 µL of the MTT solution ([…]) was added to each culture well, and the samples were incubated at 37 °C for 3 h. Then, the culture mediums were discarded, and 100 µL of DMSO was added to the samples to dissolve formazan crystal to obtain a purple/blue color. A microplate reader was used to measure the color intensities at a 570 nm wavelength.

[6] = tested on: SHSY-5Y neuroblastoma cells; assay: as above; assay type: cell-based, human; settings: 24 h, p < 0.05
Description: as §1, §3

[7] = tested on: human fibroblast (HDFa) cells; assay: MTT cell viability assay on human fibroblast (HDFa) cells; assay type: cell-based; settings: 24 h, p < 0.05
Description: as §1, §3

SMILES: NC(=O)c1nc(F)c[nH]c1=O [FPV, Favipiravir]
- IC50, concentration-dependent inhibitory effect on CYP2C8 [1]: 74.9 µg/mL (≈ 477 µM)
- change in cell viability [2]: did not cause a significant change in cell viability
- Abnormality Numbers/1000 Cells ([3]; FPV 9.7 µg/mL): 0.020 ± 0.008 a
- L (lobed nuclei) ([3]; FPV 9.7 µg/mL): 7
- MN (micronuclei) ([3]; FPV 9.7 µg/mL): 8
- Ntc (notched nuclei) ([3]; FPV 9.7 µg/mL): 5
- Abnormality Numbers/1000 Cells ([3]; FPV 19.5 µg/mL): 0.019 ± 0.016 a
- L (lobed nuclei) ([3]; FPV 19.5 µg/mL): 6
- MN (micronuclei) ([3]; FPV 19.5 µg/mL): 6
- Ntc (notched nuclei) ([3]; FPV 19.5 µg/mL): 7
- Abnormality Numbers/1000 Cells ([3]; FPV 39 µg/mL): 0.019 ± 0.007 a
- L (lobed nuclei) ([3]; FPV 39 µg/mL): 7
- MN (micronuclei) ([3]; FPV 39 µg/mL): 7
- Ntc (notched nuclei) ([3]; FPV 39 µg/mL): 5
- nuclear anomaly change compared to negative control [3]: no significant numerical anomaly change

SMILES: CC(=O)O[C@H]1C(=O)[C@@]2(C)[C@H]([C@H](OC(=O)c3ccccc3)[C@]3(O)C[C@H](OC(=O)[C@H](O)[C@@H](NC(=O)c4ccccc4)c4ccccc4)C(C)=C1C3(C)C)[C@]1(OC(C)=O)CO[C@@H]1C[C@@H]2O [PTX, Paclitaxel]
- viability at 10 µg/mL [4]: ~37%
- viability at 24 h, 10 µg/mL [5]: 37%
- concentrations causing a significant decrease in cell viability (cytotoxic effect) [6]: ≥ 312.5 ng/mL
- concentrations causing a significant cytotoxic / viability-reducing effect [7]: 10000 ng/mL
- nuclear anomaly change compared to negative control [3]: no significant numerical anomaly change
- Abnormality Numbers/1000 Cells ([3]; PTX 10 µg/mL): 0.019 ± 0.013 a
- L (lobed nuclei) ([3]; PTX 10 µg/mL): 5
- MN (micronuclei) ([3]; PTX 10 µg/mL): 8
- Ntc (notched nuclei) ([3]; PTX 10 µg/mL): 6
